Laboratory results published in patent US6040300A, “Method of preventing colon cancer with vitamin D3 analogues” (Arch Development Corporation, priority 1995, dated 2000).
“Also recorded” adds a separate entry of the source.

Legend:
[1] = system: c-myc mRNA; conditions: HL-60 cells; cited from earlier work
[2] = Serum calcium (standard colorimetric method); type: in vivo, Male albino Fisher-344 rats; conditions: for hypercalcemia or alterations in serum levels: dietary supplementation, serum phosphorus, 25(OH)D3, 1,25(OH)2D3 also named; for Serum Levels Cas+: mean ± S.E.M.
From the text: (§1) Male albino Fisher-344 rats, initially weighing ~90-100 g, were used in these studies. On arrival, the animals were quarantined for 1 wk and then randomly divided into the following six test groups: groups 1 and 2, standard vitamin D-sufficient diet; groups 3 and 4, standard diet supplemented with RO24-5531 (2.50 nmol/kg of feed); and groups 5 and 6, standard vitamin D-sufficient diet. […] Next, the rats in groups 2,4 and 6 were given subcutaneous injections of azoxymethane (AOM, Sigma Chemical Co., St. Louis, Mo.), 15 mg/kg body wt once a wk for 2 wks, while the rats in groups 1,3 and 5 received AOM-vehicle (saline).
(§2) Groups 1 and 2 were then maintained on the standard diet for an additional […]. Groups 3 and 4 were maintained on the RO24-5531 supplemented diets for the initial five wks and then switched to the standard diet without RO24-5531 for an additional 29 wks (initiation arm), whereas groups 5 and 6 were maintained on the standard diet without supplemental RO24-5531 for the initial five wks and then switched to the RO24-5531 supplemented diet for an additional 29 wks (post-initiation arm).
(§3) All rats were sacrificed in the non-fasting state after 34 wks on these protocols between 9 a.m. and 11 a.m. and sera obtained for measurement of calcium, phosphate, 25(OH)D3 and 1α,25(OH)2 D3 levels. The rats' colons were removed, opened, washed with normal saline and examined macroscopically for the presence of tumors. Resected tumors were weighed, and were fixed in 10% buffered formalin for microscopic examination. After formalin fixation, tissue specimens were paraffin-embedded, sectioned, and stained with hematoxylin and eosin as described previously (Sitrin et al., 1991), for light microscopic examination. All specimens were evaluated by a pathologist who was unaware of the dietary or AOM treatment history. Macroscopic and microscopic lesions were classified as either benign (adenoma) or malignant (adenocarcinoma).
(§4) Serum calcium and phosphorus were measured by standard colorimetric methods (Kessler and Wolfman, Clin. Chem. 10:686-703, 1964). Serum 25(OH)D3 levels were measured by radioimmunoassay, using a kit and procedure supplied by Incstar (Stillwater, Minn.). Serum 1α,25(OH)2 D3 levels were assayed by a non-equilibrium competitive protein-binding assay based on a calf thymus receptor, using a kit and procedure supplied by Incstar, as previously described (Sitrin et al., 1991).
(§5) Results are expressed as means ±SE of n determinations. Data were analyzed by Fisher's exact test (two-tailed) or analysis of variance (ANOVA) as appropriate (Snedecor and Cochran, Statistical Methods, 1980). Values of p <0.05 were considered statistically significant.

[3] = Body weight / growth and tolerability of the animals; type: in vivo; conditions: for Final Wt.: mean ± S.E.M.
From the text: as §1, §2, §3, §5

[4] = Serum phosphorus (standard colorimetric method); type: in vivo, Male albino Fisher-344 rats; conditions: for Serum Levels P: mean ± S.E.M.
From the text: as §1, §2, §3, §4, §5

[5] = system: NMU-induced breast cancers; conditions: cited from earlier work
[6] = breast tumor study; cited from earlier work
[7] = Serum 25(OH)D3 levels (radioimmunoassay); type: in vivo, Male albino Fisher-344 rats; conditions: for Serum Levels 25(OH)D3: mean ± S.E.M., n=6
From the text: as §1, §2, §3, §4, §5

[8] = system: AOM-induced colonic tumors; assay: AOM-induced colonic tumor formation with dietary RO24-5531; type: in vivo, Male albino Fisher-344 rats; conditions: for inhibition of development of colonic tumors / colon cancer incidence: AOM model, dietary supplementation
Protocol: FIG. 2. Study Protocol: Rats (12 each, in groups 1,3 and 5; 20 each, in groups 2,4 and 6) were fed either standard diet without RO24-5531 (open bars), or RO24-5531 supplemented diets (shaded bars) for the initial five weeks of the study. During this period rats were given two weekly subcutaneous injections of either AOM (15 mg/kg body wt/wk) (groups 2,4 or 6), or AOM-vehicle (saline) (groups 1,3, or 5) at the end of weeks 2 and 3 (arrows). At the end of five weeks, rats in groups 1-2 were continued on the standard diet without RO24-5531; groups 3-4 were switched to standard diet without RO24-5531; and groups 5-6 were switched to the RO24-5531 supplemented diet for another 29 weeks.
RO24-5531 was provided by Hoffmann LaRoche Inc. (Nutley, NJ; EP 580968). All diets were obtained from ICN Biochemicals (Cleveland, Ohio). Prior to pelleting, RO24-5531 or vehicle (0.1% ethanol) were mixed with the standard vitamin D-sufficient diet by ICN Biochemicals. This diet has been described in detail (Sitrin et al., 1991) and contained a normal content of calcium and phosphorus, 0.87% and 0.60%, respectively, with 2.2 IU of vitamin D3 /g of feed.
as §1, §2, §3, §5

[9] = listed as 1α,25-dihydroxy-16-ene-23-yne-26,27-hexafluorocholecalciferol
[10] = group 3: RO24-5531/SD, no AOM, n=10
[11] = group 4: RO24-5531/SD (initiation arm), AOM
[12] = group 6: SD/RO24-5531 (post-initiation arm), AOM
[13] = group 3: RO24-5531/SD, no AOM, 12 animals
[14] = group 4: RO24-5531/SD (initiation arm), AOM, 20 animals
[15] = group 4: RO24-5531/SD (initiation arm), AOM, 20 animals, p < 0.05 vs group 2
[16] = group 5: SD/RO24-5531, no AOM, 12 animals
[17] = group 6: SD/RO24-5531 (post-initiation arm), AOM, 20 animals

Compound: C=C1/C(=C\C=C2/CCC[C@]3(C)C([C@H](C)CC#CC(O)(C(F)(F)F)C(F)(F)F)=CC[C@@H]23)C[C@@H](O)C[C@@H]1O [RO24-5531, 26,26,26,27,27,27-hexafluoro-1α,25-dihydroxy-16-ene-23-yne-cholecalciferol]
- c-myc mRNA expression [1]: decrease c-myc mRNA expression in HL-60 cells
- hypercalcemia or alterations in serum levels [2]: did not result in hypercalcemia
- hypercalcemia or alterations in serum levels [2, 9]: does not induce hypercalcemia or alterations in the serum levels of phosphorus, 25(OH)D3, or 1,25(OH)2D3; also recorded: did not induce hypercalcemia or alterations in the serum levels of phosphorus, 25(OH)D3 or 1,25(OH)2D3
- Serum Levels Cas+ [2, 10]: 11.3 ± 0.1 mg/dL
- Serum Levels Cas+ ([2]; group 4: RO24-5531/SD (initiation arm), AOM, n=6): 10.1 ± 0.4 mg/dL
- Serum Levels Cas+ ([2]; group 5: SD/RO24-5531, no AOM, n=14): 10.3 ± 0.4 mg/dL
- Serum Levels Cas+ ([2]; group 6: SD/RO24-5531 (post-initiation arm), AOM, n=8): 10.1 ± 0.5 mg/dL
- effect on serum levels of calcium ([2]; groups 4 (initiation arm) and 6 (post-initiation arm)): significantly altered the serum levels of calcium, phosphorus or 25(OH)D3
- influence on growth of the animals ([3]; RO24-5531 supplemental dietary regimens, all groups): neither the RO24-5531 supplemental dietary regimens, nor the administration of carcinogen influenced the growth of the animals
- tolerability ([3]; dietary supplementation): well-tolerated by the animals
- Final Wt. ([3]; group 3: RO24-5531 2.50 nmol/kg of feed for initial five wks, then SD, no AOM): 470 ± 20 g
- Final Wt. ([3]; group 4: RO24-5531/SD (initiation arm), AOM treated): 465 ± 16 g
- Final Wt. ([3]; group 5: SD/RO24-5531 (supplement for last 29 wks), no AOM): 511 ± 30 g
- Final Wt. ([3]; group 6: SD/RO24-5531 (post-initiation arm), AOM treated): 499 ± 28 g
- Serum Levels P [4, 10]: 10.2 ± 0.7 mg/dL
- Serum Levels P ([4]; group 4: RO24-5531/SD (initiation arm), AOM, n=5): 9.9 ± 0.8 mg/dL
- Serum Levels P ([4]; group 5: SD/RO24-5531, no AOM, n=6): 9.2 ± 0.3 mg/dL
- Serum Levels P ([4]; group 6: SD/RO24-5531 (post-initiation arm), AOM, n=11): 9.0 ± 0.8 mg/dL
- effect on serum levels of phosphorus ([4]; groups 4 and 6): significantly altered the serum levels of calcium, phosphorus or 25(OH)D3
- protection against NMU-induced breast cancers ([5]; fed after administration of carcinogen): protected against the development of NMU-induced breast cancers
- breast tumor incidence ([5]; in vivo): lessened tumor incidence
- breast tumor latency ([5]; in vivo): extended breast tumor latency
- breast tumor number ([5]; in vivo): lessened tumor incidence as well as tumor number
- serum Ca2+ levels [6]: without causing elevated levels of serum Ca^2+
- Serum Levels 25(OH)D3 ([7]; group 3: RO24-5531/SD, no AOM): 31 ± 2 ng/mL
- Serum Levels 25(OH)D3 [7, 11]: 29 ± 2 ng/mL
- Serum Levels 25(OH)D3 ([7]; group 5: SD/RO24-5531, no AOM): 33 ± 4 ng/mL
- Serum Levels 25(OH)D3 [7, 12]: 36 ± 5 ng/mL
- effect on serum levels of 25(OH)D3 ([7]; groups 4 and 6): significantly altered the serum levels of calcium, phosphorus or 25(OH)D3
- inhibition of development of colonic tumors / colon cancer incidence ([8]; listed as 1α, 25-Dihydroxy-16-ene-23-yne-26, 27-hexafluorocholecalciferol): reduced the incidence of colon cancer in rats
- inhibition of development of colonic tumors / colon cancer incidence [8, 9]: can inhibit the development of colonic tumors in mammals; also recorded: can inhibit the development of colonic tumors in the AOM model
- development of tumors ([8]; AOM-vehicle, RO24-5531 supplemented diets (groups 3, 5)): None of the control animals given injections of the AOM-vehicle and fed either the standard or RO24-5531 supplemented diets developed tumors
- Tumors/Tumor Bearing rat ([8]; group 3: RO24-5531/SD, no AOM): 0
- No. of Tumor-Bearing Rats [8, 13]: 0
- No. of Tumors, Benign No. [8, 13]: 0
- No. of Tumors, Malignant No. [8, 13]: 0
- No. of Tumors, Total No. [8, 13]: 0
- incidence of colonic tumors vs group 2 ([8]; group 4, initiation arm): significant decreases in the incidence of colonic tumors
- tumor type ([8]; group 4, initiation arm): all of the colonic tumors in group 4 (initiation arm) were found to be benign, i.e., adenomas
- Tumor Wt. [8, 11]: 102 ± 28 mg
- Tumors/Tumor Bearing rat [8, 11]: 1.0
- No. of Tumors, Benign No. [8, 14]: 3
- No. of Tumors, Malignant No. [8, 14]: 0
- No. of Tumor-Bearing Rats [8, 15]: 3
- No. of Tumors, Total No. [8, 15]: 3
- Tumor-Bearing Rats (% of Incidence) ([8]; group 4: RO24-5531/SD (initiation arm), AOM, p < 0.05 vs group 2 (50%)): 15%
- Tumors/Tumor Bearing rat ([8]; group 5: SD/RO24-5531, no AOM): 0
- No. of Tumor-Bearing Rats [8, 16]: 0
- No. of Tumors, Benign No. [8, 16]: 0
- No. of Tumors, Malignant No. [8, 16]: 0
- No. of Tumors, Total No. [8, 16]: 0
- tumor type ([8]; group 6, post-initiation arm): all of the colonic tumors were found to be adenomas
- number of tumors vs AOM alone animals ([8]; group 6, post-initiation arm, p >0.05): a trend for a decrease in the number of tumors; also recorded: did not reach statistical significance
- Tumor Wt. [8, 12]: 109 mg
- Tumors/Tumor Bearing rat [8, 12]: 1.0
- No. of Tumor-Bearing Rats [8, 17]: 6
- No. of Tumors, Benign No. [8, 17]: 6
- No. of Tumors, Malignant No. [8, 17]: 0
- No. of Tumors, Total No. [8, 17]: 6
- Tumor-Bearing Rats (% of Incidence) ([8]; group 6: SD/RO24-5531 (post-initiation arm), AOM, group 2: 50%): 30%
- AOM-induced adenocarcinomas ([8]; post-initiation arm, like its initiation arm counterpart): complete absence of AOM-induced adenocarcinomas
